{
  "source": "ChEMBL document CHEMBL1152405",
  "about": "“Bis-anthracenyl isoxazolyl amides have enhanced anticancer activity” (Bioorg Med Chem Lett, 2009)",
  "type_in_all_cases": "functional",
  "key": {"HCT-116": {"tested_on": "HCT-116", "experiment": "Growth inhibition of human HCT116 cells after 24 hrs by MTT assay", "conditions": "HCT-116, 24 h"}, "HCT-15": {"tested_on": "HCT-15", "experiment": "Growth inhibition of human HCT15 cells after 24 hrs by MTT assay", "conditions": "HCT-15, 24 h"}, "HT-29": {"tested_on": "HT-29", "experiment": "Growth inhibition of human HT-29 cells after 24 hrs by MTT assay", "conditions": "HT-29, 24 h"}, "SW-620": {"tested_on": "SW-620", "experiment": "Growth inhibition of human SW620 cells after 24 hrs by MTT assay", "conditions": "SW-620, 24 h"}, "U-251": {"tested_on": "U-251", "experiment": "Growth inhibition of human U251 cells after 24 hrs by MTT assay", "conditions": "U-251, 24 h"}, "Malme-3M": {"tested_on": "Malme-3M", "experiment": "Growth inhibition of human MALME-3M cells after 24 hrs by MTT assay"}, "SK-MEL-28": {"tested_on": "SK-MEL-28", "experiment": "Growth inhibition of human SK-MEL-28 cells after 24 hrs by MTT assay", "conditions": "SK-MEL-28, 24 h"}, "SK-OV-3": {"tested_on": "SK-OV-3", "experiment": "Growth inhibition of human SKOV3 cells after 24 hrs by MTT assay", "conditions": "SK-OV-3, 24 h"}, "786-0": {"tested_on": "786-0", "experiment": "Growth inhibition of human 786-0 cells after 24 hrs by MTT assay", "conditions": "786-0, 24 h"}, "RXF 393 [1]": {"tested_on": "RXF 393", "experiment": "Growth inhibition of human RXF393 cells after 24 hrs by MTT assay", "conditions": "RXF 393, 24 h"}, "MDA-MB-231": {"tested_on": "MDA-MB-231", "experiment": "Growth inhibition of human MDA-MB-231 cells after 24 hrs by MTT assay", "conditions": "MDA-MB-231, 24 h"}, "MDA-MB-468": {"tested_on": "MDA-MB-468", "experiment": "Growth inhibition of human MDA-MB-468 cells after 24 hrs by MTT assay", "conditions": "MDA-MB-468, 24 h"}, "RXF 393 [2]": {"tested_on": "RXF 393", "experiment": "Growth inhibition of human RXF393 cells at 10 uM after 24 hrs by MTT assay relative to control", "set-up": "scale not given: the % may be the effect or the level left"}, "[3]": {"conditions": "read-out: LC50 (the source's name)"}, "[4]": {"conditions": "read-out: pLC50 (the source's name) (converted)"}},
  "data": [
    {"smiles": "Cc1onc(-c2c3ccccc3c(Cl)c3ccccc23)c1C(=O)Nc1cc(C(=O)NCCCN(C)CCCNC(=O)c2cc(NC(=O)c3c(-c4c5ccccc5c(Cl)c5ccccc45)noc3C)cn2C)n(C)c1", "values": [
      {"measurement": "TGI", "setting": "HCT-116", "result": 2880, "unit": "nM"},
      {"measurement": "GI50", "setting": "HCT-116; read-out: GI50", "result": 1540, "unit": "nM"},
      {"measurement": "GI50", "setting": "HCT-116; read-out: pGI50 (converted)", "result": 1550, "unit": "nM"},
      {"measurement": "TGI", "setting": "HCT-15", "result": 3.7, "unit": "µM"},
      {"measurement": "GI50", "setting": "HCT-15; read-out: GI50", "result": 1770, "unit": "nM"},
      {"measurement": "GI50", "setting": "HCT-15; read-out: pGI50 (converted)", "result": 1780, "unit": "nM"},
      {"measurement": "TGI", "setting": "HT-29", "result": 2470, "unit": "nM"},
      {"measurement": "GI50", "setting": "HT-29; read-out: GI50", "result": 1200, "unit": "nM"},
      {"measurement": "GI50", "setting": "HT-29; read-out: pGI50 (converted)", "result": 1200, "unit": "nM"},
      {"measurement": "TGI", "setting": "SW-620", "result": 2750, "unit": "nM"},
      {"measurement": "GI50", "setting": "SW-620; read-out: GI50", "result": 1440, "unit": "nM"},
      {"measurement": "CC50", "setting": "SW-620; [3]", "result": 5.24, "unit": "µM"},
      {"measurement": "GI50", "setting": "SW-620; read-out: pGI50 (converted)", "result": 1450, "unit": "nM"},
      {"measurement": "CC50", "setting": "SW-620; [4]", "result": 5.25, "unit": "µM"},
      {"measurement": "GI50", "setting": "U-251; read-out: GI50", "result": 1500, "unit": "nM"},
      {"measurement": "GI50", "setting": "U-251; read-out: pGI50 (converted)", "result": 1510, "unit": "nM"},
      {"measurement": "TGI", "setting": "Malme-3M", "result": 4.27, "unit": "µM"},
      {"measurement": "GI50", "setting": "Malme-3M; read-out: GI50", "result": 1930, "unit": "nM"},
      {"measurement": "GI50", "setting": "Malme-3M; read-out: pGI50 (converted)", "result": 1950, "unit": "nM"},
      {"measurement": "TGI", "setting": "SK-MEL-28", "result": 2980, "unit": "nM"},
      {"measurement": "GI50", "setting": "SK-MEL-28; read-out: GI50", "result": 1630, "unit": "nM"},
      {"measurement": "CC50", "setting": "SK-MEL-28; [3]", "result": 5.46, "unit": "µM"},
      {"measurement": "GI50", "setting": "SK-MEL-28; read-out: pGI50 (converted)", "result": 1620, "unit": "nM"},
      {"measurement": "CC50", "setting": "SK-MEL-28; [4]", "result": 5.5, "unit": "µM"},
      {"measurement": "TGI", "setting": "SK-OV-3", "result": 2870, "unit": "nM"},
      {"measurement": "GI50", "setting": "SK-OV-3; read-out: GI50", "result": 1540, "unit": "nM"},
      {"measurement": "CC50", "setting": "SK-OV-3; [3]", "result": 5.36, "unit": "µM"},
      {"measurement": "GI50", "setting": "SK-OV-3; read-out: pGI50 (converted)", "result": 1550, "unit": "nM"},
      {"measurement": "CC50", "setting": "SK-OV-3; [4]", "result": 5.37, "unit": "µM"},
      {"measurement": "TGI", "setting": "786-0", "result": 4.94, "unit": "µM"},
      {"measurement": "GI50", "setting": "786-0; read-out: GI50", "result": 2130, "unit": "nM"},
      {"measurement": "CC50", "setting": "786-0; [3]", "result": 16.7, "unit": "µM"},
      {"measurement": "GI50", "setting": "786-0; read-out: pGI50 (converted)", "result": 2140, "unit": "nM"},
      {"measurement": "CC50", "setting": "786-0; [4]", "result": 16.6, "unit": "µM"},
      {"measurement": "TGI", "setting": "RXF 393 [1]", "result": 3.3, "unit": "µM"},
      {"measurement": "GI50", "setting": "RXF 393 [1]; read-out: GI50", "result": 1630, "unit": "nM"},
      {"measurement": "GI50", "setting": "RXF 393 [1]; read-out: pGI50 (converted)", "result": 1620, "unit": "nM"},
      {"measurement": "TGI", "setting": "MDA-MB-231", "result": 2760, "unit": "nM"},
      {"measurement": "GI50", "setting": "MDA-MB-231; read-out: GI50", "result": 1370, "unit": "nM"},
      {"measurement": "GI50", "setting": "MDA-MB-231; read-out: pGI50 (converted)", "result": 1380, "unit": "nM"},
      {"measurement": "TGI", "setting": "MDA-MB-468", "result": 2780, "unit": "nM"},
      {"measurement": "GI50", "setting": "MDA-MB-468; read-out: GI50", "result": 1330, "unit": "nM"},
      {"measurement": "CC50", "setting": "MDA-MB-468; [3]", "result": 5.81, "unit": "µM"},
      {"measurement": "GI50", "setting": "MDA-MB-468; read-out: pGI50 (converted)", "result": 1320, "unit": "nM"},
      {"measurement": "CC50", "setting": "MDA-MB-468; [4]", "result": 5.75, "unit": "µM"},
      {"measurement": "Activity", "setting": "RXF 393 [2]", "result": -61.83, "unit": "%"}
    ]}
  ]
}
